Laboratory results taken from publication PMC7785020, “A unique hormonal recognition feature of the human glucagon-like peptide-2 receptor” (Cell Research, 2020).
Where a chain is given by its changes, count along the chain named. Like-named read-outs stand apart in the source and are kept apart here. No end group written: not given here.

Legend:
Assay type in all cases: cell-based
[1] = biological target: T1, GLP-2R N247^ECL1A (Homo sapiens, UniProt O95838, N247A); experiment: cAMP accumulation, N247^ECL1A; set-up: WT (1–553); expressed in transfected cells; HEK 293T (cAMP); conditions: Table S5, N247A, HEK 293T, 30 min, RT, mean ± SEM, n ≥ 3 in duplicate; for Emax: read-out: cAMP Emax (% WT); for EC50: read-out: cAMP pEC50 (converted)
T1 sequence (O95838 1-553 N247A): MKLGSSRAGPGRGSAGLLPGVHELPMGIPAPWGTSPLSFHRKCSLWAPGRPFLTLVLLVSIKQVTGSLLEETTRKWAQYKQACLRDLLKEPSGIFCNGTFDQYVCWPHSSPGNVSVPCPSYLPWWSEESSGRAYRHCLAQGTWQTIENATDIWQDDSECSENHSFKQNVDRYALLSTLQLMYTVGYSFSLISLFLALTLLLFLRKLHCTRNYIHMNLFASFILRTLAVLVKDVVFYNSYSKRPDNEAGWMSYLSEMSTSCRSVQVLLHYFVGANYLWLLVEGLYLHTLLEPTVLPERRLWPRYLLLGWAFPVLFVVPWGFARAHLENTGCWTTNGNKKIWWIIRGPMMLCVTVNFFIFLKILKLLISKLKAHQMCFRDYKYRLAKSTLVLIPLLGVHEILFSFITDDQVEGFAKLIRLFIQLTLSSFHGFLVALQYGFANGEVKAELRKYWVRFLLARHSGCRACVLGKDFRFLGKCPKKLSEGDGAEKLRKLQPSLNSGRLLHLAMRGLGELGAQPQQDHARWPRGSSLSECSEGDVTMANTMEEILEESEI
Description: (§1) HEK 293T cells were cultured in Dulbecco’s Modified Eagle’s Medium (DMEM) (Gibco, Waltham, USA) supplemented with 10% (v/v) fetal bovine serum (FBS) (Gibco) and 1% (v/v) sodium pyruvate (Gibco) at 37 °C, 5% CO2 in a humidified incubator. They were seeded onto 6-well cell culture plates and transiently transfected with different GLP-2R constructs using Lipofectamine 2000 transfection reagent (Invitrogen, Carlsbad, CA, USA). After 24 h, the transfected cells were seeded onto 384-well microtiter plates (3000 cells per well) in HBSS supplemented with 5 mM HEPES, 0.1% (w/v) bovine serum albumin (BSA) and 0.5 mM 3-isobutyl-1- methylxanthine, and stimulated with increasing concentrations of GLP-2 for 30 min at RT. Eu and Ulight were diluted by cAMP detection buffer and added to the plates separately to terminate the reaction. Plates were incubated at RT for 60 min before measuring the fluorescence intensity at 620 nm and […] by an EnVision multilabel plate reader (PerkinElmer, Boston, USA).

[2] = biological target: T2, GLP-2R R242^ECL1A (Homo sapiens, UniProt O95838, R242A); experiment: cAMP accumulation, R242^ECL1A; set-up: WT (1–553); expressed in transfected cells; HEK 293T (cAMP); conditions: 30 min, RT, mean ± SEM, n ≥ 3 in duplicate; for Emax: HEK-293T, read-out: cAMP Emax (% WT); for EC50: HEK 293T, read-out: cAMP pEC50 (converted)
T2 sequence (O95838 1-553 R242A): T1 sequence (O95838 1-553 N247A) with R242A, A247N
Description: as §1

[3] = biological target: T3, GLP-2R (1-553) (WT) (Homo sapiens, UniProt O95838); experiment: cAMP accumulation, WT GLP-2R; conditions: 30 min, RT, mean ± SEM, n ≥ 3 in duplicate; for Emax: HEK-293T; for EC50: HEK 293T, read-out: cAMP pEC50 (converted)
T3 construct: GLP-2R (1-553) (WT); expressed in transfected cells; host or cells: HEK 293T
T3 sequence (O95838 1-553): T1 sequence (O95838 1-553 N247A) with A247N
Description: as §1

| Compound | Emax [1] [%] | EC50 [1] [nM] | Emax ([2]; Table S5, R242A) [%] | EC50 ([2]; Table S5, R242A) [nM] | Emax ([3]; Table S5, GLP-2R (WT)) [%] | EC50 ([3]; Table S5, GLP-2R (WT)) [nM] | Emax ([2]; Table S3, R242A) [%] | Emax ([3]; Table S3, WT) [%] | Emax ([3]; Table S4, WT) [%] |
| --- | --- | --- | --- | --- | --- | --- | --- | --- | --- |
| HADGSFTSDVSSYLEGQAARDFINWLIQTKITD [Chimeric GLP-1/GLP-2 (7-19)] | 102 ± 2.8 | 1.26 | 106 ± 4.9 | 25.1 | 103 ± 2.6 | 3.16 | – | – | – |
| HADGSFSDEMNTILDNLAAKEFIAWLVKGRG [Chimeric GLP-1/GLP-2 (20-33)] | 103 ± 1.8 | 0.0501 | 102 ± 3.1 | 1.26 | 104 ± 1.5 | 0.126 | – | – | – |
| CC[C@H](C)[C@H](NC(=O)[C@H](Cc1ccccc1)NC(=O)[C@H](CC(=O)O)NC(=O)[C@H](CCCNC(=N)N)NC(=O)[C@H](C)NC(=O)[C@H](C)NC(=O)[C@H](CC(C)C)NC(=O)[C@H](CC(N)=O)NC(=O)[C@H](CC(=O)O)NC(=O)[C@H](CC(C)C)NC(=O)[C@@H](NC(=O)[C@@H](NC(=O)[C@H](CC(N)=O)NC(=O)[C@H](CCSC)NC(=O)[C@H](CCC(=O)O)NC(=O)[C@H](CC(=O)O)NC(=O)[C@H](CO)NC(=O)[C@H](Cc1ccccc1)NC(=O)[C@H](CO)NC(=O)CNC(=O)[C@H](CC(=O)O)NC(=O)[C@H](C)NC(=O)[C@@H](N)Cc1c[nH]cn1)[C@@H](C)O)[C@@H](C)CC)C(=O)N[C@@H](CC(N)=O)C(=O)N[C@@H](Cc1c[nH]c2ccccc12)C(=O)N[C@@H](CC(C)C)C(=O)N[C@H](C(=O)N[C@@H](CCC(N)=O)C(=O)N[C@H](C(=O)N[C@@H](CCCCN)C(=O)N[C@H](C(=O)N[C@H](C(=O)N[C@@H](CC(=O)O)C(=O)O)[C@@H](C)O)[C@@H](C)CC)[C@@H](C)O)[C@@H](C)CC [Human GLP-2 (1–33)] | 103 ± 1.8 | – | 104 ± 2.3 | – | 103 ± 1.6 | – | 107 ± 3.4 | 101 ± 2.4 | 101 ± 2.9 |
| HAEGTFSDEMNTILDNLAARDFINWLIQTKITD [Chimeric GLP-1/GLP-2 (1-6)] | 102 ± 1.8 | 0.0398 | 105 ± 3.2 | 7.94 | 103 ± 1.8 | 0.158 | – | – | – |
